Test system: 945468-187-T-J3-PDC spheroids with HUVEC/MSC, viability
Experiment: Anticancer human tumor 945468-187-T-J3-PDC patient-derived rectal carcinoma cell line growth inhibition [PI3K]
Conditions: for IC50: curve of first compound; for viability, T/C: stronger effect = lower value
Source text: Combinatorial screen of targeted agents with the PI3K inhibitors inavolisib, alpelisib, duvelisib, and copanlisib in multi-cell type tumor spheroids
A high-throughput screen of multi-cell type tumor spheroids was designed to identify active combinations of targeted small molecules and PI3K pathway inhibitors. Complex spheroids include a stromal component modeled by human endothelial cells (HUVEC) and fibroblasts modeled by human mesenchymal stem cells (MSCs). The concentration ranges selected for each drug and investigational agent were based upon clinically achievable concentrations if the clinical Cmax of the agent was known.
Compounds. The drugs and investigational agents: inavolisib (NSC800729), alpelisib (NSC765974), duvelisib (NSC772469), copanlisib (NSC816437), ipatasertib (NSC767898), afuresertib (NSC778305), talazoparib (NSC767125), sapanisertib (NSC764658), selumetinib (NSC741078), tovorafenib (DAY101, NSC766906), vemurafenib (NSC761431), ravoxertinib (NSC781343), sotorasib (NSC818433), MRTX1133 (NSC 836407), abemaciclib (NSC 768073), palbociclib (NSC758247), venetoclax (NSC 766270), SY5609 (NSC837396), enzalutamide (NSC755605), and darolutamide (NSC825331), were obtained from the National Cancer Institute (NCI) Developmental Therapeutics Program Chemical Repository. The FDA-approved anticancer drug set is available from the NCI Developmental Therapeutics Program. […] The stock solutions were prepared in dimethyl sulfoxide (DMSO, Sigma-Aldrich, St. Louis, MO, cat. D2650) at 800-fold the tested concentration and stored at -70 degrees C prior to their use. All drugs and investigational agents were tested over a range starting from a high concentration at or near the clinical Cmax and decreasing in half-log increments. If the clinical Cmax for an agent had not been determined, the highest concentration tested was 10 microM.
Cell Culture. All cells were maintained in an incubator at 37 degrees C and 5% CO2 with 95% humidity. The PDC lines were cultured according to standard operating procedures established by the NCI PDMR (https://pdmr.cancer.gov/sops/default.htm). All PDCs were thawed and cultured in Matrigel-coated flasks prepared with a working solution of 1X Ham's F-12 nutrient mix, without supplementation (Invitrogen, Waltham, MA, cat. 11765054), 100 U/mL penicillin-streptomycin (Invitrogen, cat. 15140122), and 2.5% Matrigel (Corning Inc., Corning, NY, cat. 354248) for the first three passages. The 354836-022-R-J1-PDC, 475296-252-R-J1-PDC, and 997726-040-R-J2-PDC lines were cultured in 6A media, which includes advanced DMEM/F-12 (Thermo Fisher Scientific, cat. 12634028), 10 mM HEPES (Thermo Fisher Scientific, cat. 15630080), 1X GlutaMAX supplement (Thermo Fisher Scientific, cat. 35050061), 0.1 mg/mL primocin (InvivoGen, San Diego, CA, cat. ant-pm-2), 10% defined fetal bovine serum, heat inactivated (HyClone Laboratories Inc., Logan, UT, cat. SH30070.03HI), 50% L-WRN conditioned media (ATCC, cat. CRL-3276), 1.25 mM N-Acetyl-L-cysteine (Sigma-Aldrich, cat. A9165), 10 mM nicotinamide (Sigma-Aldrich, cat. N0636), 1X B-27 supplement (Thermo Fisher Scientific, cat. 17504044), 1X N-2 supplement (Thermo Fisher Scientific, cat. 17502048), and 10 microM Y-27632 dihydrochloride (Tocris Bioscience, Bristol, United Kingdom, cat. 1254). The 624824-186-R-J2-PDC line was cultured in 6C/Colon 1B media, which includes all 6A media components plus 50 ng/mL human EGF recombinant protein (Thermo Fisher Scientific, cat. PHG0311). […]

[1] = second compound 0.00316 µM, first compound 0.0316 µM
[2] = second compound 0.00316 µM, first compound 0.1 µM
[3] = second compound 0.01 µM, first compound 0.0316 µM
[4] = second compound 0.01 µM, first compound 0.1 µM
[5] = second compound 0.0316 µM, first compound 0.0316 µM
[6] = second compound 0.0316 µM, first compound 0.1 µM
[7] = second compound 0.1 µM, first compound 0.0316 µM
[8] = second compound 0.1 µM, first compound 0.1 µM
[9] = second compound 0.316 µM, first compound 0.0316 µM
[10] = second compound 0.316 µM, first compound 0.1 µM
[11] = second compound 1 µM, first compound 0.0316 µM
[12] = second compound 1 µM, first compound 0.1 µM
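Also: spheroids exposed to agents for 7 days before viability read.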
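For viability, T/C in this document: 100% = DMSO vehicle control viability.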

SMILES: CC(=O)c1c(C)c2cnc(Nc3ccc(N4CCNCC4)cn3)nc2n(C2CCCC2)c1=O + CC(Nc1ccc2c(c1)OCCn1cc(N3C(=O)OCC3C(F)F)nc1-2)C(N)=O
- IC50 (second compound 0.00316 µM): > 100 nM
- IC50 (second compound 0.01 µM): > 100 nM
- IC50 (second compound 0.0316 µM): > 100 nM
- IC50 (second compound 0.1 µM): > 100 nM
- IC50 (second compound 0.316 µM): > 100 nM
- IC50 (second compound 1 µM): 77.5 nM
- viability, T/C (second compound 0.00316 µM, first compound 0.000316 µM): 90.5%
- viability, T/C (second compound 0.00316 µM, first compound 0.001 µM): 100%
- viability, T/C (second compound 0.00316 µM, first compound 0.00316 µM): 94.9%
- viability, T/C (second compound 0.00316 µM, first compound 0.01 µM): 99.2%
- viability, T/C [1]: 108%
- viability, T/C [2]: 110%
- viability, T/C (second compound 0.01 µM, first compound 0.000316 µM): 97.6%
- viability, T/C (second compound 0.01 µM, first compound 0.001 µM): 104%
- viability, T/C (second compound 0.01 µM, first compound 0.00316 µM): 101%
- viability, T/C (second compound 0.01 µM, first compound 0.01 µM): 110%
- viability, T/C [3]: 109%
- viability, T/C [4]: 103%
- viability, T/C (second compound 0.0316 µM, first compound 0.000316 µM): 108%
- viability, T/C (second compound 0.0316 µM, first compound 0.001 µM): 104%
- viability, T/C (second compound 0.0316 µM, first compound 0.00316 µM): 92.8%
- viability, T/C (second compound 0.0316 µM, first compound 0.01 µM): 116%
- viability, T/C [5]: 101%
- viability, T/C [6]: 123%
- viability, T/C (second compound 0.1 µM, first compound 0.000316 µM): 110%
- viability, T/C (second compound 0.1 µM, first compound 0.001 µM): 111%
- viability, T/C (second compound 0.1 µM, first compound 0.00316 µM): 104%
- viability, T/C (second compound 0.1 µM, first compound 0.01 µM): 118%
- viability, T/C [7]: 115%
- viability, T/C [8]: 119%
- viability, T/C (second compound 0.316 µM, first compound 0.000316 µM): 118%
- viability, T/C (second compound 0.316 µM, first compound 0.001 µM): 100%
- viability, T/C (second compound 0.316 µM, first compound 0.00316 µM): 90.1%
- viability, T/C (second compound 0.316 µM, first compound 0.01 µM): 101%
- viability, T/C [9]: 104%
- viability, T/C [10]: 81.5%
- viability, T/C (second compound 1 µM, first compound 0.000316 µM): 83.1%
- viability, T/C (second compound 1 µM, first compound 0.001 µM): 67.9%
- viability, T/C (second compound 1 µM, first compound 0.00316 µM): 64.7%
- viability, T/C (second compound 1 µM, first compound 0.01 µM): 80.6%
- viability, T/C [11]: 74.8%
- viability, T/C [12]: 43.2%

SMILES: CNC(=O)c1ccc(N2C(=S)N(c3ccc(C#N)c(C(F)(F)F)c3)C(=O)C2(C)C)cc1F + CC(Nc1ccc2c(c1)OCCn1cc(N3C(=O)OCC3C(F)F)nc1-2)C(N)=O
- IC50 (second compound 0.00316 µM): > 10000 nM
- IC50 (second compound 0.01 µM): > 10000 nM
- IC50 (second compound 0.0316 µM): > 10000 nM
- IC50 (second compound 0.1 µM): > 10000 nM
- IC50 (second compound 0.316 µM): > 10000 nM
- IC50 (second compound 1 µM): > 10000 nM
- viability, T/C [1]: 92.4%
- viability, T/C [2]: 108%
- viability, T/C (second compound 0.00316 µM, first compound 0.316 µM): 109%
- viability, T/C (second compound 0.00316 µM, first compound 1 µM): 108%
- viability, T/C (second compound 0.00316 µM, first compound 3.16 µM): 132%
- viability, T/C (second compound 0.00316 µM, first compound 10 µM): 103%
- viability, T/C [3]: 105%
- viability, T/C [4]: 124%
- viability, T/C (second compound 0.01 µM, first compound 0.316 µM): 115%
- viability, T/C (second compound 0.01 µM, first compound 1 µM): 129%
- viability, T/C (second compound 0.01 µM, first compound 3.16 µM): 111%
- viability, T/C (second compound 0.01 µM, first compound 10 µM): 108%
- viability, T/C [5]: 110%
- viability, T/C [6]: 118%
- viability, T/C (second compound 0.0316 µM, first compound 0.316 µM): 111%
- viability, T/C (second compound 0.0316 µM, first compound 1 µM): 126%
- viability, T/C (second compound 0.0316 µM, first compound 3.16 µM): 109%
- viability, T/C (second compound 0.0316 µM, first compound 10 µM): 111%
- viability, T/C [7]: 121%
- viability, T/C [8]: 108%
- viability, T/C (second compound 0.1 µM, first compound 0.316 µM): 125%
- viability, T/C (second compound 0.1 µM, first compound 1 µM): 128%
- viability, T/C (second compound 0.1 µM, first compound 3.16 µM): 126%
- viability, T/C (second compound 0.1 µM, first compound 10 µM): 109%
- viability, T/C [9]: 124%
- viability, T/C [10]: 104%
- viability, T/C (second compound 0.316 µM, first compound 0.316 µM): 108%
- viability, T/C (second compound 0.316 µM, first compound 1 µM): 115%
- viability, T/C (second compound 0.316 µM, first compound 3.16 µM): 121%
- viability, T/C (second compound 0.316 µM, first compound 10 µM): 108%
- viability, T/C [11]: 79.8%
- viability, T/C [12]: 63.1%
- viability, T/C (second compound 1 µM, first compound 0.316 µM): 72.7%
- viability, T/C (second compound 1 µM, first compound 1 µM): 81.1%
- viability, T/C (second compound 1 µM, first compound 3.16 µM): 94.5%
- viability, T/C (second compound 1 µM, first compound 10 µM): 94.3%
